{"source": "patent US20060089325A1", "about": "“Antisense modulation of PTP1B expression” (priority 2004, published 2006)", "key": {"[1]": {"test_system": "Zucker diabetic fatty (ZDF) rats", "experiment": "ZDF rats, comparison to rosiglitazone and metformin: blood glucose, HbA1c, meal tolerance, body weight", "assay_type": "in vivo, rat", "settings": "for HbA1c: end of study (5 weeks), saline ZDF 9.2%, lean 5.5", "description": "A saline treated group of lean rats was also included in the study. Treatment with all drugs was initiated before the rats became frankly diabetic, which occurs at about 8 weeks of age. Plasma glucose levels were measured 3 and 5 weeks after treatment initiation. Body weight was measured once every week; in addition, HbA1c levels were measured at the end of the study by HPLC. A meal tolerance test was also performed after 4 weeks of treatment.\nAt the end of 5 weeks, some rats were sacrificed and the liver and epididymal fat pads were removed. The rest of the animals (n=4/group) were examined for changes in plasma glucose levels after cessation of treatment. Glucose measurements during the recovery phase were made 10 days and 5 weeks after stopping treatment. Tissue extracts were subjected to Western blot analysis to measure changes in PTP1B protein levels."}, "[2]": {"test_system": "Zucker Diabetic Fatty Rats", "experiment": "Combination of ISIS 113715 and metformin in ZDF rats: plasma glucose (Table 18)", "assay_type": "in vivo, rat", "experimental": "500 mg/kg is the maximally effective dose that can be tolerated by these rats. Plasma glucose was measured at week 0 (before treatment) and after weeks 1, 2 and 4 of treatment."}, "[3]": {"experiment": "Metformin combination in ZDF rats: hypoglycemia, AST/ALT, lipids, plasma lactate", "assay_type": "in vivo, rat", "settings": "after 4 weeks of treatment", "description": "500 mg/kg is the maximally effective dose that can be tolerated by these rats.\nThere was no significant change in AST/ALT, plasma triglyceride or plasma cholesterol levels in any animal group. Because of the risk of lactic acidosis associated with metformin treatment, plasma lactate levels were measured."}, "[4]": {"test_system": "Zucker diabetic fatty (ZDF) rats", "experiment": "ZDF rats, comparison to rosiglitazone and metformin: blood glucose, HbA1c, meal tolerance, body weight", "assay_type": "in vivo, rat", "settings": "31 day washout after 5 weeks of treatment"}, "[5]": {"experiment": "AST/ALT and plasma cholesterol in aged ZDF rats", "settings": "weeks 1, 2, 3, 4 and 5"}, "[6]": {"test_system": "Zucker diabetic fatty (ZDF) rats", "experiment": "Fed plasma glucose in Zucker diabetic fatty (ZDF) rats", "assay_type": "in vivo, rat", "settings": "25 mg/kg ip two times per week", "source_text": "The leptin receptor deficient Zucker diabetic fatty (ZDF) rat is another useful model for the investigation of type 2 diabetes. Diabetes develops spontaneously in these male rats at ages 8-10 weeks, and is associated with hyperphagia, polyuria, polydipsia, and impaired weight gain, symptoms which parallel the clinical symptoms of diabetes (Phillips M S, et al., 1996, Nat Genet 13, 18-19).\n(§1) ZDF/GmiCrl-fa/fa (ZDF) male rats were purchased from Charles River Laboratories (Wilmington, Mass., USA). Six week old ZDF male rats were injected intraperitoneally with oligonucleotides at a dose of 25 mg/kg two times per week for four weeks. […] Saline-injected animals also serve as controls."}, "[7]": {"test_system": "Zucker diabetic fatty (ZDF) rats", "experiment": "Intraperitoneal glucose tolerance test (IPGTT) in ZDF rats", "assay_type": "in vivo, rat", "settings": "for Blood glucose after IPGTT (± SEM) / Insulin excursion after IPGTT (± SEM): 25 mg/kg ip twice weekly", "description": "as §1\nAn intraperitoneal glucose tolerance test (IPGTT) was also performed. Rats received intraperitoneal injections of glucose, and the blood glucose and insulin levels are measured before the glucose challenge and at intervals over 2 hours. The blood glucose levels (in mg/dL) are shown below in Table 1:\nThe blood glucose levels shown in Table 1 were graphed over time and the area under the curve (AUC) is calculated. A smaller AUC for glucose (smaller blood glucose excursion after glucose challenge) indicates better glucose tolerance. Glucose excursion (AUC) for saline-treated rats was approximately 72,000; for negative control ISIS 141923-treated rats, approximately 80,000, for ISIS 113715-treated rats, approximately 60,000 and for ISIS 106425-treated rats, approximately 63,000."}, "PTP1B protein": {"test_system": "PTP1B protein", "experiment": "PTP1B protein levels in ZDF rats (Western blot)", "assay_type": "in vivo, rat", "settings": "25 mg/kg ip twice weekly four weeks", "description": "as §1\nPTP1B protein levels were measured by Western blot analysis."}, "PTP1B": {"test_system": "PTP1B", "experiment": "PTP1B protein in HEPG2 cells (Western blot)", "assay_type": "cell-based, human", "settings": "150 nM, vs no oligo treatment", "description": "(§2) There is a high degree of homology between PTP1B and T-cell phosphatase (TC-PTPase, PTPN2), particularly in the catalytic domain. This may present problems in design of small molecule drugs specific for PTP1B. […] HEPG2 human hepatocellular liver carcinoma cells (ATCC, Manassas Va.) are routinely maintained in minimum essential medium (Eagle) with 2 mM L-glutamine and Earle's BSS adjusted to contain 1.5 g/L sodium bicarbonate, 0.1 mM non-essential amino acids, and 1.0 mM sodium pyruvate, […]; fetal bovine serum.\n(§3) Levels of PTP1B and TC-PTPase protein were measured by Western blot using mouse monoclonal antibodies to PTP1B (AB-1) and TC-PTPase (AB-1) (CalBiochem/Oncogene sciences, EMD Biosciences, Inc., San Diego Calif.), which specifically identified human target proteins and were used at 0.25 ug/ml. Results were expressed as percent of control (no oligo treatment)."}, "TC-PTPase": {"test_system": "TC-PTPase", "experiment": "TC-PTPase protein in HEPG2 cells (Western blot), specificity", "assay_type": "cell-based, human", "settings": "150 nM, vs no oligo treatment", "description": "as §2, §3"}, "[8]": {"settings": "rat, in vivo"}, "[9]": {"settings": "10 day washout after 5 weeks of treatment"}, "[10]": {"settings": "Week 3 of dosing, ISIS 113715 50 mg/kg/week ip, rosiglitazone 10 mg/kg/day, metformin 800 mg/kg/day orally"}}, "note": "Read-outs that look alike come from different tables or passages of the source."}
{"molecule": "CN(C)C(=N)N=C(N)N", "note": "[Metformin]", "values": [{"measurement": "Body weight after treatment", "setting": "[1]; 5 weeks", "result": "remained unchanged"}, {"measurement": "Blood glucose (approx.)", "setting": "[1]; [9]", "result": "~305", "unit": "mg/dL"}, {"measurement": "Blood glucose (approx.)", "setting": "[1]; Pre-treatment", "result": "~135", "unit": "mg/dL"}, {"measurement": "Blood glucose (approx.)", "setting": "[1]; [10]", "result": "~180", "unit": "mg/dL"}, {"measurement": "HbA1c", "setting": "[1]", "result": 6.1, "unit": "%"}, {"measurement": "Effect on blood glucose over the study (in words)", "setting": "[2]; ISIS 113715 12.5 mg/kg ip twice a week, metformin 100, 300 or 500 mg/kg per day, four weeks", "result": "lost over time"}, {"measurement": "Plasma glucose mg/dL ± SEM", "setting": "[2]; metformin alone 100 mg/kg per day oral gavage, Week 0 (before treatment)", "result": "256 ± 29", "unit": "mg/dL"}, {"measurement": "Plasma glucose mg/dL ± SEM", "setting": "[2]; metformin alone 100 mg/kg per day oral gavage, Week 1", "result": "428 ± 20", "unit": "mg/dL"}, {"measurement": "Plasma glucose mg/dL ± SEM", "setting": "[2]; metformin alone 100 mg/kg per day oral gavage, Week 2", "result": "504 ± 20", "unit": "mg/dL"}, {"measurement": "Plasma glucose mg/dL ± SEM", "setting": "[2]; metformin alone 100 mg/kg per day oral gavage, Week 3", "result": "494 ± 18", "unit": "mg/dL"}, {"measurement": "Plasma glucose mg/dL ± SEM", "setting": "[2]; metformin alone 100 mg/kg per day oral gavage, Week 4", "result": "393 ± 71", "unit": "mg/dL"}, {"measurement": "Plasma glucose mg/dL ± SEM", "setting": "[2]; metformin alone 300 mg/kg per day oral gavage, Week 0 (before treatment)", "result": "251 ± 27", "unit": "mg/dL"}, {"measurement": "Plasma glucose mg/dL ± SEM", "setting": "[2]; metformin alone 300 mg/kg per day oral gavage, Week 1", "result": "323 ± 33", "unit": "mg/dL"}, {"measurement": "Plasma glucose mg/dL ± SEM", "setting": "[2]; metformin alone 300 mg/kg per day oral gavage, Week 2", "result": "415 ± 29", "unit": "mg/dL"}, {"measurement": "Plasma glucose mg/dL ± SEM", "setting": "[2]; metformin alone 300 mg/kg per day oral gavage, Week 3", "result": "449 ± 11", "unit": "mg/dL"}, {"measurement": "Plasma glucose mg/dL ± SEM", "setting": "[2]; metformin alone 300 mg/kg per day oral gavage, Week 4", "result": "448 ± 42", "unit": "mg/dL"}, {"measurement": "Plasma glucose mg/dL ± SEM", "setting": "[2]; metformin alone 500 mg/kg per day oral gavage, Week 0 (before treatment)", "result": "252 ± 28", "unit": "mg/dL"}, {"measurement": "Plasma glucose mg/dL ± SEM", "setting": "[2]; metformin alone 500 mg/kg per day oral gavage, Week 1", "result": "244 ± 56", "unit": "mg/dL"}, {"measurement": "Plasma glucose mg/dL ± SEM", "setting": "[2]; metformin alone 500 mg/kg per day oral gavage, Week 2", "result": "344 ± 59", "unit": "mg/dL"}, {"measurement": "Plasma glucose mg/dL ± SEM", "setting": "[2]; metformin alone 500 mg/kg per day oral gavage, Week 3", "result": "374 ± 53", "unit": "mg/dL"}, {"measurement": "Plasma glucose mg/dL ± SEM", "setting": "[2]; metformin alone 500 mg/kg per day oral gavage, Week 4", "result": "443 ± 35", "unit": "mg/dL"}, {"measurement": "Plasma lactate levels", "setting": "[3]", "result": "dose-dependent increase in lactate"}, {"measurement": "Blood glucose (approx.)", "setting": "[4]", "result": "~330", "unit": "mg/dL"}]}
{"molecule": "CN(CCOc1ccc(CC2SC(=O)NC2=O)cc1)c1ccccn1", "note": "(centres unmarked) [Rosiglitazone]", "values": [{"measurement": "Blood glucose (approx.)", "setting": "[1]; [9]", "result": "~260", "unit": "mg/dL"}, {"measurement": "Blood glucose (approx.)", "setting": "[1]; Pre-treatment", "result": "~140", "unit": "mg/dL"}, {"measurement": "Blood glucose (approx.)", "setting": "[1]; [10]", "result": "~110", "unit": "mg/dL"}, {"measurement": "HbA1c", "setting": "[1]", "result": 5.4, "unit": "%"}, {"measurement": "Blood glucose (approx.)", "setting": "[4]", "result": "~270", "unit": "mg/dL"}, {"measurement": "Plasma cholesterol levels", "setting": "[5]", "result": "no significant effects"}]}
{"molecule": "ISIS 141923: CCTTCCCTGAAGGTTCCTCC (SEQ ID NO: 20), six-mismatch control of ISIS 113715, negative oligonucleotide control (chemistry not given here)", "values": [{"measurement": "Fed plasma glucose levels", "setting": "[6]; week 0", "result": "approximately 306±59 mg/dL"}, {"measurement": "Fed plasma glucose levels", "setting": "[6]; week 1", "result": "~391 ± 35", "unit": "mg/dL"}, {"measurement": "Fed plasma glucose levels", "setting": "[6]; week 2", "result": "~402 ± 37", "unit": "mg/dL"}, {"measurement": "Fed plasma glucose levels", "setting": "[6]; week 3", "result": "~411 ± 27", "unit": "mg/dL"}, {"measurement": "Fed plasma glucose levels", "setting": "[6]; week 4", "result": "~392 ± 11", "unit": "mg/dL"}, {"measurement": "Blood glucose after IPGTT (± SEM)", "setting": "[7]; 0 min", "result": "330 ± 39", "unit": "mg/dL"}, {"measurement": "Insulin excursion after IPGTT (± SEM)", "setting": "[7]; 0 min", "result": "2.2 ± .30 ng/mL"}, {"measurement": "Blood glucose after IPGTT (± SEM)", "setting": "[7]; 5 min", "result": "543 ± 43", "unit": "mg/dL"}, {"measurement": "Insulin excursion after IPGTT (± SEM)", "setting": "[7]; 5 min", "result": "2.3 ± .84 ng/mL"}, {"measurement": "Blood glucose after IPGTT (± SEM)", "setting": "[7]; 15 min", "result": "703 ± 60", "unit": "mg/dL"}, {"measurement": "Insulin excursion after IPGTT (± SEM)", "setting": "[7]; 15 min", "result": "4.0 ± .22 ng/mL"}, {"measurement": "Blood glucose after IPGTT (± SEM)", "setting": "[7]; 30 min", "result": "791 ± 52", "unit": "mg/dL"}, {"measurement": "Insulin excursion after IPGTT (± SEM)", "setting": "[7]; 30 min", "result": "4.2 ± .37 ng/mL"}, {"measurement": "Blood glucose after IPGTT (± SEM)", "setting": "[7]; 60 min", "result": "705 ± 51", "unit": "mg/dL"}, {"measurement": "Insulin excursion after IPGTT (± SEM)", "setting": "[7]; 60 min", "result": "2.4 ± .66 ng/mL"}, {"measurement": "Blood glucose after IPGTT (± SEM)", "setting": "[7]; 120 min", "result": "594 ± 28", "unit": "mg/dL"}, {"measurement": "Insulin excursion after IPGTT (± SEM)", "setting": "[7]; 120 min", "result": "1.7 ± .60 ng/mL"}, {"measurement": "Insulin AUC after IPGTT", "setting": "[7]; saline approximately 300", "result": "~320"}, {"measurement": "Glucose excursion (AUC) after IPGTT", "setting": "[7]; saline approximately 72,000", "result": "approximately 80,000"}, {"measurement": "PTP1B protein levels, decrease vs saline-treated animals", "setting": "PTP1B protein", "result": 10, "unit": "%"}, {"measurement": "Reduction of PTP1B protein levels", "setting": "PTP1B", "result": "reduced neither PTP1B nor TC-PTPase levels"}, {"measurement": "Reduction of TC-PTPase levels", "setting": "TC-PTPase", "result": "reduced neither PTP1B nor TC-PTPase levels"}, {"measurement": "AST/ALT", "setting": "[8]", "result": "no significant effects"}, {"measurement": "Plasma cholesterol levels", "setting": "[8]", "result": "no significant effects"}]}
